What was measured:
Type in all cases: in vivo, human
HCMV [1] = experiment: phase I/II clinical trial of tocilizumab added to standard GVHD prophylaxis: HCMV reactivation vs historical cohort; conditions: at risk BMT recipients; compared to non-randomized similarly transplanted historical cohort
From the text: FIGS. 9A through 9C. IL-6 inhibition with tocilizumab is associated with low rates of significant CMV reactivation relative to historical controls. Human CMV (HCMV) viremia over time after bone marrow transplantation (BMT) in patients from (FIG. 9A) a phase I/II clinical trial of the addition of tocilizumab to standard graft versus host disease (GVHD) prophylaxis (left) or (FIG. 9B) a contemporaneous historical control cohort (right). FIG. 9C. Depiction of CMV reactivation > 600 versus < 600 copies/µL of plasma in the two patient cohorts.
(§1) Patients. Patients were enrolled in reported phase I/II (ACTRN12612000726853) or phase III (ACTRN12614000266662) clinical trials. The studies were approved by the Royal Brisbane and Womens Hospital institutional human ethics committee and all patients provided signed informed consent.
HCMV monitoring. CMV viral load was monitored using the COBAS® Amplicor CMV Monitor test (Roche Diagnostics, Basel, Switzerland) as previously described (Tey SK, Kennedy GA, Cromer D, Davenport MP, Walker S, Jones LI, et al. Clinical assessment of anti-viral CD8+ T cell immune monitoring using QuantiFERON-CMV® assay to identify high risk allogeneic hematopoietic stem cell transplant patients with CMV infection complications. PloS one. 2013, 8(10), e74744). […]

MCP-1 = experiment: plasma MCP-1 in phase III BMT patients; conditions: day 60 after BMT
From the text: (§2) FIGS. 11A through 11D. IL-6 inhibition with tocilizumab (TCZ) attenuates human CMV (HCMV) viremia after clinical BMT. FIG. 11A. Kinetics of HCMV viremia over time for placebo control versus TCZ groups. FIG. 11B (left). The number of PCR positive events of HCMV viremia plotted in (A) and depicted in the two patient cohorts. FIG. 11B (right). Distribution of HCMV reactivation in the patient cohorts receiving volunteer unrelated donor (VUD) grafts. FIG. 11C. Plasma concentration of MCP-1 at day + 60 after bone marrow transplantation (BMT) in patients was quantified and shown in relation to HCMV reactivation (≥ 600 copies/µL) and TCZ treatment. FIG. 11D. Pair-wise comparison of MCP-1 from day + 30 to + 60 in patients without (left) or with (right) significant CMV reactivation (≥ 600 copies/µL) in the placebo group. *P < 0.05; ****P < 0.0001.
Flow cytometry. Antibody stained single-cell suspensions were analyzed on an LSR Fortessa™ cytometer in Australia or a FACSymphony™ A3 in Seattle USA (Becton Dickinson) and data are processed using FlowJo version 10 (Tree Star). Cytokines levels in the plasma were determined with the BD Cytometric Bead Array system (BD Biosciences).
Furthermore, high level HCMV reactivation (≥ 600 copies/ul) was associated with a greater increase in MCP-1 between day + 30 and + 60 than seen in patients with low level reactivation (FIG. 11D). […]

HCMV [2] = experiment: phase III randomized placebo-controlled trial: HCMV viremia and cumulative incidence of HCMV reactivation after allogenic BMT
From the text: FIGS. 6A through 6D. IL-6 inhibition with tocilizumab reduces human CMV (HCMV) reactivation in clinical allogenic bone marrow transplantation (BMT) recipients. Participants of a phase 3 clinical trial who were enrolled at Royal Brisbane and Women’s Hospital and were at-risk of HCMV reactivation were included for analysis (n = 85). These patients were either seropositive for HCMV (R^+) or received grafts from seropositive donors (D^+). FIGS. 6A to 6C. Cumulative incidence of any detectable HCMV reactivation after BMT in at-risk patients. Solid lines represent the tocilizumab (TCZ) group and broken lines represent the placebo control group. FIG. 6A. HCMV reactivation in the total cohort (left) or the subset of patients with grade 0 - I acute graft versus host disease (aGVHD) (right). FIG. 6B. HCMV reactivation in all recipients of volunteer unrelated donor (VUD) grafts (left) or the subset of patients with grade 0 - I aGVHD (right). FIG. 6C. HCMV reactivation in all recipients of matched sibling donor (MSD) grafts (left) or those with grade 0 - I aGVHD (right). FIG. 6D. Distribution of HCMV serostatus (D^+R^-, D^+R^+ and D^-R^+) in recipients of MSD or VUD grafts.
as §2, §1
HCMV monitoring. CMV viral load was monitored using the COBAS® Amplicor CMV Monitor test (Roche Diagnostics, Basel, Switzerland) as previously described (Tey SK, Kennedy GA, Cromer D, Davenport MP, Walker S, Jones LI, et al. Clinical assessment of anti-viral CD8+ T cell immune monitoring using QuantiFERON-CMV® assay to identify high risk allogeneic hematopoietic stem cell transplant patients with CMV infection complications. PloS one. 2013, 8(10), e74744). Cumulative incidence of any detectable HCMV viremia is plotted up to day + 100 after BMT and HCMV is censored at day + 100 of BMT or the time of death if this occurred prior to day 100.
Statistics. Results are presented as median ± interquartile range and the Mann-Whitney U test was used for comparisons. Wilcoxon test is conducted for pair-wise comparisons. Ordinary least-squares method was used in the linear or semi-log regression analysis. A two-sided P value of 0.05 was considered statistically significant. […]

HCMV-specific IgG = HCMV-specific IgG titers in plasma at day +30 after BMT (chemiluminescence, Diasorin Liaison XL)
From the text: FIGS. 8A through 8C. IL-6 inhibition with tocilizumab is associated with the maintenance of human CMV (HCMV)-specific IgG. FIGS. 8A to 8C. Quantification of HCMV-specific IgG titers in plasma at day + 30 after bone marrow transplantation (BMT). FIG. 8A. D^-R^+ and D^+R^+ patients are classified into 3 groups based on HCMV reactivation (reactivation before day + 35, reactivation between day + 35 and + 100, no reactivation by day + 100) and respective HCMV-specific IgG titers are shown. FIG. 8B. HCMV-specific IgG in D^-R^+ and D^+R^+ patients are shown for tocilizumab (TCZ) versus placebo control (Ctrl) groups (left). The analysis for the subset of unrelated transplants is shown right. FIG. 8C. Titers of HCMV-specific IgG in D^+R^- patients are shown for TCZ versus placebo control groups. Dotted lines indicate detection limit of the HCMV-IgG assay (5 -180 U/mL).
Total and HCMV-specific IgG. The concentration of total IgG was determined with Enzyme-linked immunosorbent assay (Invitrogen) as per the manufacturer’s protocol. Quantification of HCMV IgG was conducted by Sullivan Nicolaides Pathology Queensland (Bowen Hills, QLD, Australia) using a chemiluminescence method on the Diasorin Liaison® XL platform. This semiquantitative method allows for a detection range of 5 - 180 Unit/mL.
Given the lack of effects of IL-6 inhibition on T and B cells, HCMV-specific IgG was quantified after BMT. […]

CD19+ B cells = experiment: B cell subsets and B cell counts in peripheral blood after clinical BMT
Experimental: (§3) FIGS. 7A through 7G. […] Patients included for the evaluation of human CMV (HCMV) reactivation (as in FIG. 6) were analyzed for HCMV specific T cells and other immune subsets. A total of 50 PBMC samples at day + 60 after bone marrow transplantation (BMT) were identified based on availability of HCMV tetramers and peptides. FIG. 7A. Frequency of HCMV tetramer positive CD8^+ T cells in patients with or without HCMV reactivation. FIG. 7B. Frequency of cytokine (IFNy^+TNF^+) producing CD8^+ T cells following HCMV peptide stimulation in patients with or without HCMV reactivation. FIG. 7C. Frequency of HCMV tetramer positive CD8^+ T cells in patients receiving tocilizumab (TCZ) (n = 21) or placebo control (Ctrl) (n = 29). FIG. 7D. Frequency of cytokine (IFNv^+TNF^+) producing CD8^+ T cells in patients receiving TCZ or placebo. FIG. 7E. Memory phenotype for CD4^+ T cells in patients receiving TCZ or placebo. FIG. 7F. Memory phenotype for CD8^+ T cells in patients receiving TCZ or placebo. FIG. 7G. Proportions of naive B cells, mature B cells and plasmablasts in a subset of the above cohort (n = 19 for control and 17 for TCZ groups respectively). *P < 0.05.
FIGS. 12A through 12B. The effects of IL-6 inhibition with tocilizumab (TCZ) on B cell recovery following clinical BMT. FIG. 12A. B cell counts in peripheral blood in at-risk patients at day + 30 and + 60 after BMT. FIG. 12B. B cell counts in peripheral blood at day + 60 after bone marrow transplantation (BMT), classified into 4 groups based on the TCZ administration and the presence of acute graft versus host disease (aGVHD).
Furthermore, there was no difference in the memory phenotypes of CD4^+ and CD8^+ T cells between placebo and TCZ treated patients (FIGS. 7E - 7F). The inventors also analyzed CD19^+ B cells in available samples (n = 19 for Ctrl and n = 17 for TCZ).

HCMV specific T cells = experiment: HCMV-specific CD8+ T cells and T cell memory phenotype in PBMC at day +60 after BMT (flow cytometry)
Experimental: as §3
Next the effect of IL-6 inhibition was investigated on donor T and B cell responses after BMT. Firstly, HCMV-specific CD8^+ T cells defined by HCMV-tetramer staining or cytokine production (IFNγ and/or TNF) were analyzed following HCMV peptide stimulation in conjunction with markers of T cell memory (CD45RA and CCR7). The inventors identified 50 PBMC samples at day + 60 after BMT based on availability of HCMV tetramers (and/or peptides). […] Within the subset of patients with HCMV reactivation, HCMV tetramer^+ cells were present at a lower frequency in patients with higher HCMV viremia (FIG. 7A right).

Substance: tocilizumab
- rates of significant HCMV reactivation requiring preemptive therapy (> 600 copies/µL) (HCMV [1]): low rates
- increase of plasma MCP-1 with HCMV reactivation (≥ 600 copies/ul) (MCP-1): not observed
- benefit from treatment by serostatus (HCMV [2]; HCMV seropositive patients receiving seronegative grafts (D-R+)): maximum benefit
- HCMV viremia (HCMV [2]; TCZ vs placebo, at-risk patients (n = 85)): a trend towards lower HCMV viremia
- HCMV reactivation, TCZ versus placebo (HCMV [2]; recipients of matched sibling donor grafts): no difference
- protection on HCMV reactivation (HCMV [2]; recipients of volunteer unrelated donor (VUD) grafts, independent of acute GVHD): most profound
- cumulative incidence of HCMV reactivation (HCMV [2]; total cohort, TCZ vs placebo, independent of acute GVHD): a trend towards lower cumulative incidence
- effect on HCMV-IgG titers by graft type (HCMV-specific IgG; day +30 plasma, VUD subset): predominantly observed in recipients of VUD grafts
- HCMV-IgG in day +30 plasma (HCMV-specific IgG; seropositive recipients (D-R+ and D+R+), TCZ vs placebo): higher
- absolute numbers of B cells in blood (CD19+ B cells; day +30 or +60, presence or absence of TCZ): not different
- B cell suppression in patients with grade II-IV acute GVHD (CD19+ B cells; day +60): did appear to mitigate
- frequencies of IgD+CD27- naïve B cells, IgD-CD27+ mature B cells or CD38hi plasmablasts (CD19+ B cells; n = 19 Ctrl, n = 17 TCZ): did not impact
- frequency of cytokine-producing CD8+ T cells (HCMV specific T cells; day +60 PBMC, HCMV peptide stimulation, TCZ vs placebo): did not have any significant effect
- frequency of HCMV-tetramer+CD8+ T cells (HCMV specific T cells; day +60 PBMC, TCZ (n = 21) vs placebo (n = 29)): did not have any significant effect
- memory phenotypes of CD4+ and CD8+ T cells (HCMV specific T cells; placebo vs TCZ treated patients): no difference

Source: patent US20230151101A1, “METHODS AND COMPOSITIONS TO ENHANCE HUMORAL IMMUNITY TO REDUCE CYTOMEGALOVIRUS INFECTION AND REACTIVATION BY IL-6 INHIBITION” (Fred Hutchinson Cancer Center, priority 2021, published 2023)
